Source: patent publication US12570603B2, “FABP4/5 inhibitors, methods of use and methods of making” (Novius Therapeutics, LLC, priority 2021, dated 2026)

Columns and labels:
MB-231 tumors = assay: TNBC xenograft experiment; type: in vivo; conditions: NSG mice, B4 20 or 40 mg/kg IP 5 times a week, after 14 days
Protocol: Eight-week-old NSG […] females were injected subcutaneously into the right flank with 5×10^6 MB-231 cells 1:1 with matrigel. Treatments started the day after cells injections 5 days a week. Mice were treated with either vehicle (5% DMSO, 15%-HPCBD (PH 9.0) in water), 20 mg/kg, or 40 mg/kg B4 dissolved in vehicle. Tumor size was assessed twice per week using a digital caliper. Tumor volumes were determined by measuring the length (l) and the width (w) of the tumor and calculating the volume (V=lw^2/2). Mice were scarified 14 days after injection. Statistical significance between the control and treated mice in both experiments was evaluated using a Student's t test. Mouse experiments were conducted after approval by the institutional animal care and use committee at Case Western Reserve University.
TNBC xenograft model was used to test the efficacy of B4 in suppressing growth on tumors in vivo. 5×10^6 MB-231 cells were subcutaneously injected into the right flank of NSG mice. B4 (20, or 40 mg/kg) or a vehicle were IP injected 5 times a week and tumor growth was monitored.

[1] = Level of B4 in serum and tissues after IP injection or oral gavage; type: in vivo, mice
Protocol: Male CD-1 mice (n=3) were treated with B4 either by IP injections (5 mg/kg) or by oral gavage (10 mg/kg). At times, 3, 6, and 24 hours after treatment, mice were euthanized and serum, liver, adipose, muscle and brain tissues were collected and analyzed to determine level of B4. Untreated mice were used as controls.

[2] = tested on: LX-2 hepatic stellate cells; assay: Lipid uptake assay, Oil Red O staining of lipid droplets; type: cell-based, human
Protocol: 1) LX-2: Human LX-2 hepatic stellate cells were treated with compound for 2 days in the presence or absence of 2% lipid mixture (Sigma, USA) in the growth media. Cells were stained with Oil Red O and lipid content was quantified using ImageJ.

[3] = tested on: FABP4 together with PPARγ; assay: Transcriptional activation assay in cells overexpressing FABP4, with PPARγ activator rosiglitazone; type: cell-based; conditions: FIG. 7
Protocol: COS-7 were cultured in 6-well plates and co-transfected with either a luciferase reporter driven by 3 copies of a PPRE and expression vector for either PPARδ, PPARα or PPARγ together with a vector harboring cDNA for β-galactosidase, serving as a transfection control. To test whether FABP4 or FABP5 mediate activation of their cognate receptors PPARγ and PPARδ, respectively, cells were also co-transfected with a plasmid harboring sequence of either FABP4 or FABP5. 18 h post-transfection, cells were placed in a serum-free medium and treated with agonist/compound. 18 h. later, cells were lysed, luciferase activity was assayed (Promega, WI, USA) and corrected for transfection efficiency by the activity of β-galactosidase.

[4] = tested on: PPARδ targets PDPK1 and CD47 in TNBC cells MB-231; assay: Real-time PCR of PPARδ targets; type: cell-based; conditions: MB-231, 1 μM, 6 hours
Protocol: (§1) Cells were treated with a compound for 6 h. then lysed and RNA was extracted using Trizol, according to the manufacturer's instructions. cDNA was generated using GeneAmp RNA PCR (Applied Biosystems). qPCR was carried out using TaqMan chemistry and Assays-on-Demand probes (Applied Biosystems). 18s (4352930) rRNA was used for normalization. Relative expression was calculated as 2^−ΔΔCT.

3T3-L1 adipocytes = assay: Lipolysis (glycerol release) in mature adipocytes; type: cell-based, mouse
Protocol: (§2) 3) 3T3-L1: Mouse 3T3-L1 cells were differentiated in culture according to ATCC protocol to become mature adipocytes. At day 6 of the differentiation, compound treatment started. Cells were stained by Nile Red on day and color intensity in each cell was measured relative to Dapi staining. Lipolysis was measured by measuring glycerol levels using lipolysis kit (Cayman, USA) according to the manufacturer manual.
as §2, with “1)” for “3)”

[5] = tested on: RAW264.7 murine macrophage cells; assay: LPS-stimulated proinflammatory cytokine expression by QPCR; type: cell-based; conditions: B4 0 to 5 μM, then LPS 100 ng/ml
Protocol: as §1
FIG. 33, FIG. 34, and FIG. 35 show the anti-inflammatory effects of compound B4 on RAW264.7 murine macrophage cells.

[6] = IP Injection (0.35 μmole/mouse), 3 hr
[7] = IP Injection (0.35 μmole/mouse), 6 hr
[8] = IP Injection (0.35 μmole/mouse), 24 hr
[9] = Oral Gavage (0.71 μmole/mouse), 3 hr
[10] = Oral Gavage (0.71 μmole/mouse), 6 hr
[11] = Oral Gavage (0.71 μmole/mouse), 24 hr

## CC(C)Oc1cc(NC(=O)CSCC(=O)O)c(Cl)cc1Cl [Compound B4, 2-((2-((2,4-dichloro-5-isopropoxyphenyl)amino)-2-oxoethyl)thio)acetic acid]
MB-231 tumors
  growth of 231 tumors: almost completely abolished growth
[1]; [6]
  Drug Concentration, Adipose: 7.98 ± 3.82 µmol/kg
  Drug Concentration, Blood: 1910 ± 140 nM
  Drug Concentration, Brain: 0.15 ± 0.04 µmol/kg
  Drug Concentration, Liver: 7.05 ± 2.0 µmol/kg
  Drug Concentration, Muscle: 1.7 ± 0.8 µmol/kg
[1]; [7]
  Drug Concentration, Adipose: 2.45 ± 1.12 µmol/kg
  Drug Concentration, Blood: 1370 ± 120 nM
  Drug Concentration, Brain: 0.09 ± 0.01 µmol/kg
  Drug Concentration, Liver: 3.45 ± 1.49 µmol/kg
  Drug Concentration, Muscle: 1.07 ± 0.8 µmol/kg
[1]; [8]
  Drug Concentration, Adipose: 0.013 ± 0.006 µmol/kg
  Drug Concentration, Blood: 5.4 ± 2 nM
  Drug Concentration, Brain: 0.0003 ± 0.0002 µmol/kg
  Drug Concentration, Liver: 0.035 ± 0.016 µmol/kg
  Drug Concentration, Muscle: 0.008 ± 0.002 µmol/kg
[1]; [9]
  Drug Concentration, Adipose: 1.41 ± 0.002 µmol/kg
  Drug Concentration, Blood: 1240 ± 250 nM
  Drug Concentration, Brain: 0.1 ± 0.04 µmol/kg
  Drug Concentration, Liver: 8.93 ± 2.2 µmol/kg
  Drug Concentration, Muscle: 1.33 ± 0.74 µmol/kg
[1]; [10]
  Drug Concentration, Adipose: 1.38 ± 0.05 µmol/kg
  Drug Concentration, Blood: 980 ± 500 nM
  Drug Concentration, Brain: 0.09 ± 0.04 µmol/kg
  Drug Concentration, Liver: 6.47 ± 2.3 µmol/kg
  Drug Concentration, Muscle: 0.95 ± 0.45 µmol/kg
[1]; [11]
  Drug Concentration, Adipose: 0.11 ± 0.05 µmol/kg
  Drug Concentration, Blood: 7.2 ± 2 nM
  Drug Concentration, Brain: 0.0009 ± 0.0007 µmol/kg
  Drug Concentration, Liver: 0.035 ± 0.013 µmol/kg
  Drug Concentration, Muscle: 0.014 ± 0.018 µmol/kg
[1]; male CD-1 mice, IP 5 mg/kg or oral gavage 10 mg/kg, after 24 hours
  clearance from serum and tissues: cleared from the serum and tissues
[2]; B4 alone, activated LX-2 cells
  amount of lipid droplets (Oil Red O): increased the amount of LD in the cells
[2]; co-treatment with 2% lipid mix and B4
  lipid droplet size: increases the LD size even more
[3]
  inhibition of PPARγ activity in cells overexpressing FABP4: inhibit activity of the nuclear receptors only in cells that express the binding proteins
[4]
  levels of endogenous PPARδ targets PDPK1 and CD47: significantly lower
3T3-L1 adipocytes; basal
  basal lipolysis (glycerol release): inhibited basal lipolysis
3T3-L1 adipocytes; isoproterenol-stimulated, relative to basal
  isoproterenol-stimulated lipolysis (glycerol release): more potent
[5]
  IL-1β mRNA level: lower in the treated cells
  IL-6 mRNA level: lower in the treated cells
  TNFα mRNA level: lower in the treated cells
